The text below walks through data of PubChem BioAssay (NCI).

“And” between values parts separate entries of the source, which are not always exact repeats. Equal values may be shown once.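 Five compound concentrations were applied to cells in 96-well plates for 48 hours; endpoints were derived by simple linear interpolation of the resulting dose-response curve. GI50 = concentration required for 50% inhibition of growth. TGI: concentration producing complete growth inhibition.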 Bounds are passed on as bounds.

Among the test systems are IGROV1 ovarian; OVCAR-5 ovarian; MDA-MB-435; RXF 393 renal; CAKI-1 renal; MALME-3M melanoma; OVCAR-4 ovarian; SF-268 CNS; HCT-116 colon; MDA-N; KM12 colon; UO-31 renal; UACC-62 melanoma; MDA-MB-231 breast; NCI-H460 lung.
What all share (experiment): DTP human tumour cell line panel, 48 h

The term TGI denotes the concentration giving total growth inhibition. A lower TGI goes with more potent growth arrest. Usually GI50 stands for the concentration at which growth is held to half of that of the control.

Regarding `Cc1ccc2c(c1)C(=O)c1nc(C)ccc1C2=O`, the TGI with IGROV1 ovarian is 66.5 µM; in the experiment with OVCAR-5 ovarian, more than 100 µM; in the experiment on MDA-MB-435 it was 44 µM; in the experiment on RXF 393 renal it was more than 100 µM; with CAKI-1 renal it was 76.9 µM; in the experiment on MALME-3M melanoma, 24.7 µM. For the same compound, the TGI in the experiment on OVCAR-4 ovarian is 89 µM; with SF-268 CNS it was more than 100 µM; with HCT-116 colon, 60.6 µM; in the experiment on MDA-N, 39.9 µM; in the experiment with KM12 colon it was more than 100 µM; in the experiment on UO-31 renal, 86.2 µM. The TGI worked out at 67.3 µM in the experiment with UACC-62 melanoma and 62.1 µM in the experiment with MDA-MB-231 breast.

In the case of `Cc1nc(CC#N)n[nH]1`, the TGI in the experiment on IGROV1 ovarian, in the experiment on OVCAR-5 ovarian, in the experiment on MDA-MB-435, with RXF 393 renal, with OVCAR-4 ovarian and with SF-268 CNS was more than 100 µM throughout. Moreover, the TGI in the experiment on HCT-116 colon, with MDA-N, with KM12 colon, with UO-31 renal, in the experiment on UACC-62 melanoma and in the experiment with MDA-MB-231 breast was more than 100 µM each time.

In the case of `CCN1CCC(O)(c2ccc(Oc3ccc(F)cc3)cc2)C(C(=O)c2ccc(Oc3ccc(F)cc3)cc2)C1` (centres undefined), the TGI amounted to 24.1 µM with IGROV1 ovarian; 28.5 µM with OVCAR-5 ovarian; 30.8 µM with MDA-MB-435; 25.8 µM in the experiment on RXF 393 renal; 25.7 µM in the experiment with CAKI-1 renal; 31 µM in the experiment with MALME-3M melanoma. For the same compound, the TGI worked out at 29 µM in the experiment on OVCAR-4 ovarian; 34.9 µM in the experiment with SF-268 CNS; 27.4 µM with HCT-116 colon; 30.6 µM with MDA-N; 18.3 µM with KM12 colon; 28 µM with UACC-62 melanoma. This compound came in with a TGI in the experiment on MDA-MB-231 breast of 26.6 µM.

As for `c1ccc(C(NCC2CCO2)(c2ccccc2)c2ccccc2)cc1` (centres undefined), the TGI with IGROV1 ovarian is 32.7 µM; in the experiment with OVCAR-5 ovarian, 30.5 µM; in the experiment with MDA-MB-435, 46 µM; in the experiment on RXF 393 renal it was 35 µM; with CAKI-1 renal it was 55.2 µM; in the experiment with MALME-3M melanoma it was 35.1 µM. Besides, the TGI was found to be 30.2 µM in the experiment on OVCAR-4 ovarian; 33.9 µM in the experiment with NCI-H460 lung; 56 µM in the experiment on HCT-116 colon; 54.5 µM in the experiment with MDA-N; 28.8 µM in the experiment with KM12 colon; 25.3 µM with UO-31 renal. Also, the TGI was 32 µM in the experiment with UACC-62 melanoma and 70.1 µM in the experiment on MDA-MB-231 breast.

`O=S(=O)(O)c1cc(N=Nc2c(O)ccc3ccccc23)ccc1/C=C/c1ccc(N=Nc2c(O)ccc3ccccc23)cc1S(=O)(=O)O`: the TGI in the experiment on IGROV1 ovarian, in the experiment with OVCAR-5 ovarian, in the experiment on MDA-MB-435, in the experiment on RXF 393 renal, in the experiment on CAKI-1 renal and in the experiment with MALME-3M melanoma was more than 100 µM in each case. Further, the TGI in the experiment with OVCAR-4 ovarian, in the experiment on SF-268 CNS, in the experiment on HCT-116 colon, with MDA-N, in the experiment with KM12 colon and in the experiment with UO-31 renal was more than 100 µM throughout. Moreover, the TGI with UACC-62 melanoma and with MDA-MB-231 breast was more than 100 µM in each case.

For the compound `CN1CN(c2ccccc2)C2(CCN(CC(C)(c3ccc(F)cc3)C3OCCCO3)CC2)C1=O` (centres undefined), the TGI in the experiment on IGROV1 ovarian stood at 38.9 µM; in the experiment with OVCAR-5 ovarian, 25.7 µM; in the experiment on MDA-MB-435, 24.5 µM; in the experiment with RXF 393 renal it was 39.5 µM; in the experiment on CAKI-1 renal, 65.3 µM; in the experiment with MALME-3M melanoma, 30 µM. For the same compound, the TGI was determined as 44.9 µM in the experiment with SF-268 CNS; 28.7 µM with HCT-116 colon; 31.6 µM with MDA-N; 31.1 µM in the experiment on KM12 colon; 11 µM in the experiment on UO-31 renal; 34.6 µM in the experiment on UACC-62 melanoma. Also, the TGI in the experiment with MDA-MB-231 breast stood at 60.8 µM.

Take `CN(Cc1cnc2nc(N)nc(N)c2n1)c1ccc(C(=O)N[C@@H](CCC(=O)O)C(=O)O)cc1`: the TGI in the experiment with IGROV1 ovarian is 212 µM and > 250 µM; in the experiment on OVCAR-5 ovarian, 207 µM and > 250 µM; in the experiment with MDA-MB-435, more than 250 µM; in the experiment on RXF 393 renal, 215 µM and > 250 µM; with CAKI-1 renal, 200 µM and > 250 µM; in the experiment with MALME-3M melanoma it was more than 250 µM. Further, the TGI in the experiment on OVCAR-4 ovarian is 238 µM and > 250 µM; in the experiment with SF-268 CNS it was 206 µM and > 250 µM; with NCI-H460 lung, more than 245 µM; in the experiment with MDA-N it was more than 250 µM; in the experiment on KM12 colon, 239 µM and > 250 µM; in the experiment on UO-31 renal, 148 µM. The TGI with UACC-62 melanoma is 41.4 µM and > 250 µM; in the experiment with MDA-MB-231 breast it was more than 250 µM. In addition, the GI50 was 0.0672 µM and 0.0441 µM in the experiment with MDA-MB-435; 0.00707 µM with NCI-H460 lung; 0.0289 µM and 0.0122 µM with MDA-N; 0.0454 µM in the experiment with UO-31 renal.

Turning to `CCCC(CCC(N)=O)(CCC(N)=O)[N+](=O)[O-]`, the TGI with IGROV1 ovarian, in the experiment on OVCAR-5 ovarian, with MDA-MB-435, with RXF 393 renal, in the experiment on CAKI-1 renal and in the experiment on MALME-3M melanoma was more than 100 µM throughout. Also, the TGI in the experiment on SF-268 CNS, in the experiment on NCI-H460 lung, in the experiment with HCT-116 colon, with MDA-N, in the experiment on KM12 colon and with UO-31 renal was more than 100 µM throughout. Moreover, the TGI with UACC-62 melanoma and in the experiment on MDA-MB-231 breast was more than 100 µM in each case.

On to `Cc1ccc(NC=O)c(-c2c(N)[nH]c(=S)[nH]c2=O)c1`, for which the total growth inhibition concentration (TGI) in the experiment on IGROV1 ovarian, in the experiment with OVCAR-5 ovarian, with MDA-MB-435, in the experiment on RXF 393 renal, in the experiment with CAKI-1 renal and in the experiment on MALME-3M melanoma was more than 100 µM in each case. The TGI with SF-268 CNS, with HCT-116 colon, in the experiment with MDA-N, in the experiment with KM12 colon, with UO-31 renal and in the experiment on UACC-62 melanoma was more than 100 µM in each case. Besides, in the experiment with MDA-MB-231 breast, the TGI is more than 100 µM.

Turning to `Clc1ccc(C2=NN=C3C(c4ccccc4)=Nc4ccccc4N3C2)cc1`, the TGI in the experiment on IGROV1 ovarian is more than 100 µM; with OVCAR-5 ovarian it was more than 30.6 µM; in the experiment with MDA-MB-435, more than 100 µM; in the experiment on RXF 393 renal, more than 46.2 µM; with CAKI-1 renal it was more than 100 µM; in the experiment with MALME-3M melanoma it was more than 82 µM. Further, the total growth inhibition concentration (TGI) is more than 43.9 µM in the experiment with OVCAR-4 ovarian; more than 93.9 µM in the experiment on SF-268 CNS; more than 100 µM in the experiment on HCT-116 colon; more than 100 µM in the experiment on MDA-N; more than 100 µM with KM12 colon; more than 80 µM in the experiment on UO-31 renal. The TGI with UACC-62 melanoma and in the experiment on MDA-MB-231 breast was more than 100 µM in each case.
